Laboratory results reported in patent US7196110B2, “N-substituted tricyclic 3-aminopyrazoles as inhibitors for the treatment of cell proliferative disorders” (Janssen Phamaceutica N.V., priority 2002, dated 2007).

What was measured:
[1] = biological target: T1, PDGF-receptor beta enzyme comprising the tyrosine kinase domain (Homo sapiens, UniProt P09619); experiment: Inhibition of PDGF-receptor kinase activity (cell-free, PLC1 peptide, 33P Flashplate); assay type: biochemical; settings: PDGF-R kinase activity; for inhibition at 10 µM: compound at 10 uM, read-out: Percent Inhibition @ 10 uM; for IC50: read-out: IC50
T1 construct: from amino acid 545 to 1106 of GenBank Access NO: AAA36427
Outline: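 The IC50 is the inhibitor level halving kinase activity relative to inhibitor-free wells, measured as 33P captured on a streptavidin-bound biotin-PLC1 peptide. The reaction ran 60 min at 30 °C in pH 8 Tris buffer with 1 mM DTT, 5 μM ATP and the 545–1106 kinase-domain enzyme.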

[2] = biological target: c-Abl kinase (Abelson murine leukemia virus, UniProt P00521); experiment: Inhibition of c-Abl kinase activity (cell-free, Abl peptide substrate, 33P Flashplate); assay type: biochemical; settings: IC50 for the c-Abl kinase activity
Experimental: The inhibitory activity of compounds within the scope of the invention on c-Abl kinase activity was tested according to the following procedure.
• 1. 10× Kinase Buffer [500 mM Tris-HCl pH=8, 100 mM MgCl2, 1 mM Na3VO4] • 2. 10 mM DTT [final concentration 1 mM] • 3. 10 mM ATP [final concentration 5 μM] (Gibco, Cat No:18330-019, Carlsbad, Calif.) • 4. ^33P-γ-ATP [NEG-602H; 2000–3000 Ci/mmol], 2 μCuries per well at 10 μCi/μl (0.2 μl/well) • 5. Abl enzyme (New England Biolabs, Cat No. P6050L, Beverly, Mass.) at 100 Units/μl use 10 Units/well (0.1 μl/well) • 6. Enzyme Dilution Buffer [50 mM Tris-HCl pH=8.0, 0.1% BSA] • 7. Wash/Stop Buffer [PBS+100 mM EDTA] • 8. NEN Streptavidin Flashplates (New England Nuclear, Cat No. SMP-103, Boston, Mass.). • 9. Abl Peptide Substrate (Biotin-[…]-amide) at 1 mM in 50 mM Tris-HCL pH=8.0. (Use at 1.0 μM). Procedure
Reagents were first mixed according to the following regimen:
The above reaction mixture was dispensed into each well of a Flashplate at 70 μl/well. To test the effect of a compound on Abl kinase activity, the test compound either in a fixed concentration or in serially diluted concentrations in 100% DMSO was added to appropriate wells at 1 μl/well.
Enzyme Abl was diluted in enzyme dilution buffer as following:
The kinase reaction was started by adding 30 μl of diluted Abl enzyme solution to each well on the Flashplate containing hot ATP (2 μCi/well) and Abl peptide substrate (at 1 μM final conc.), except wells of column 12 rows E and F, which were used to calculate the plate background. The Flashplate was swirled to mix and was incubated at 30° C. for 60 minutes. Then, the reaction mixture was discarded and the Flashplate was washed 3 times each with 200 μL Wash/Stop Buffer. Subsequently, each well on the Flashplate was filled with 200 μl of Wash/Stop buffer. The amount of ^33P retained in each well was measured using a Packard TopCount after the plate was sealed with a transparent plate sealer.
In order to test the potency of inhibition of present compounds, an IC50 for an individual compound was measured using the above procedure. As used herein, the IC50 for c-Abl kinase activity refers to the concentration of an inhibitor at which the activity of c-Abl kinase is reduced by one-half as compared with reactions containing no inhibitor.

Chain of c-Abl kinase (P00521 115-385): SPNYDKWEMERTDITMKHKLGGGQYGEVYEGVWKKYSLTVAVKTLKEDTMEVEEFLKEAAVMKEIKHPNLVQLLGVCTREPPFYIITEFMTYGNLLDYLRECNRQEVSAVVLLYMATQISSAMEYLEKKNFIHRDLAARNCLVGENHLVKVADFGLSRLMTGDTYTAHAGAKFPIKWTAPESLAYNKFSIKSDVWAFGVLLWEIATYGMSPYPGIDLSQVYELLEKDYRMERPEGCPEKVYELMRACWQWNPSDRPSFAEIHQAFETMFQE
T1 sequence (P09619 545-1106): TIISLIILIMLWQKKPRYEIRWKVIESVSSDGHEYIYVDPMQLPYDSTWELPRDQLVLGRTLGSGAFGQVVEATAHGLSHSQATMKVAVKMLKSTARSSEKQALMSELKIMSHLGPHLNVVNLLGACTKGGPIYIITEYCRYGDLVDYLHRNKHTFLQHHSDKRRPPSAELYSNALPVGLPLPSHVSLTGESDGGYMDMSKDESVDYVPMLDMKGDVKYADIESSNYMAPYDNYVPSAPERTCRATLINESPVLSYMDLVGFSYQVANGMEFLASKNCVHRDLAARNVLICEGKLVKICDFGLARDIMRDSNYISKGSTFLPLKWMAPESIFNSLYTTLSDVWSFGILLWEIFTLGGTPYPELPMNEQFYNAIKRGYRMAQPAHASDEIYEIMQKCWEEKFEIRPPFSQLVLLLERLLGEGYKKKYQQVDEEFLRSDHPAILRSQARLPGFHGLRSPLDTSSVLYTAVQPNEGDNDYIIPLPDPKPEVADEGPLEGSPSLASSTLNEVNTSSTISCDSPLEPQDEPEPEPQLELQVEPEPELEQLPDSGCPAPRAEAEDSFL

Compound COc1cc2c(cc1OCC(O)CO)Cc1c-2n[nH]c1Nc1cccnc1 (stereo not drawn) [Compound 263, 3-[7-Methoxy-3-(pyridn-3-ylamino)-2,4-dihydro-indeno[1,2-c]pyrazol-6-yloxy]-propane-1,2-diol] has an inhibition at 10 µM [1] of 103%, an IC50 [1] of 46 nM and an IC50 [2] of 512 nM.

Work on COc1cc2c(cc1OCCCO)Cc1c-2n[nH]c1Nc1cccc(F)c1 [Compound 265, 3-[3-(3-Fluoro-phenylamino)-7-methoxy-2,4-dihydro-indeno[1,2-c]pyrazol-6-yloxy]-propan-1-ol] yielded an inhibition at 10 µM [1] of 63%, an IC50 [1] of 5.53 nM and an IC50 [2] of 85 nM.

Compound COc1cccc(Nc2[nH]nc3c2Cc2cc(OCCCO)c(OC)cc2-3)c1 [Compound 266, 3-[7-Mehoxy-3-(3-methoxy-phenylamino)-2,4-dihydro-indeno[1,2-c]pyrazol-6-yloxy]-propan-1-ol] has an inhibition at 10 µM [1] of 110%, an IC50 [1] of 1.53 nM and an IC50 [2] of 15 nM.

COc1cc2c(cc1OCCCO)Cc1c-2n[nH]c1Nc1ccc(F)c(Cl)c1 [Compound 267, 3-[3-(3-Choloro-4-fluoro-phenylamino)-7-methoxy-2,4-dihydro-indeno[1,2-c]pyrazol-6-yloxy]-propan-1-ol] was tested, and the inhibition at 10 µM [1] was 93.5%, the IC50 [1] was 10.6 nM and the IC50 [2] was 326 nM.

COc1cc2c(cc1OCCCO)Cc1c-2n[nH]c1Nc1cccc(Cl)c1 [Compound 268, 3-[3-(3-Chloro-phenylamino)-7-methoxy-2,4-dihydro-indeno[1,2-c]pyrazol-6-yloxy]-propan-1-ol] showed an inhibition at 10 µM [1] of 84%, an IC50 [1] of 1.13 nM and an IC50 [2] of 20 nM.

In the case of COc1cc2c(cc1OCC(O)CN1CCCC1)Cc1c-2n[nH]c1Nc1cccc(F)c1 (stereo not drawn) [Compound 269, 1-[3-(3-Fluoro-phenylamino)-7-methoxy-2,4-dihydro-indeno[1,2-c]pyrazol-6-yloxy]-3-pyrrolidin-1-yl-propan-2-ol], the inhibition at 10 µM [1] is reported as 94%, the IC50 [1] is reported as 0.591 nM and the IC50 [2] is reported as 101 nM.

For COc1cccc(Nc2[nH]nc3c2Cc2cc(OCC(O)CN4CCCC4)c(OC)cc2-3)c1 (stereo not drawn) [Compound 270, 1-[7-Methoxy-3-(3-methoxy-phenylamino)-2,4-dihydro-indeno[1,2-c]pyrazol-6-yloxy]-3-pyrrolidin-1-yl-propan-2-ol], the inhibition at 10 µM [1] was 107%, the IC50 [1] was 0.429 nM and the IC50 [2] was 36 nM.

With COc1cc2c(cc1OCC(O)CN1CCCC1)Cc1c-2n[nH]c1Nc1ccc(F)c(Cl)c1 (stereo not drawn) [Compound 280, 1-[3-(3-Chloro-4-fluoro-phenylamino)-7-methoxy-2,4-dihydro-indeno[1,2-c]pyrazol-6-yloxy]-3-pyrrolidin-1-yl-propan-2-ol] the inhibition at 10 µM [1] was 102%, the IC50 [1] was 1.72 nM and the IC50 [2] was 363 nM.

COc1cc2c(cc1OCC(O)CN1CCCC1)Cc1c-2n[nH]c1Nc1cccnc1 (stereo not drawn) [Compound 281, 1-[7-Methoxy-3-(pyridin-3-ylamino)-2,4-dihydro-indeno[1,2-c]pyrazol-6-yloxy]-3-pyrrolidin-1-yl-propan-2-ol] showed an inhibition at 10 µM [1] of 67%, an IC50 [1] of 2.6 nM and an IC50 [2] of 1580 nM.

COc1cc2c(cc1OCC(O)CN1CCCC1)Cc1c-2n[nH]c1Nc1cccc(Cl)c1 (stereo not drawn) [Compound 282, 1-[3-(3-Chloro-phenylamino)-7-methoxy-2,4-dihydro-indeno[1,2-c]pyrazol-6-yloxy]-3-pyrrolidin-1-yl-propan-2-ol] showed an inhibition at 10 µM [1] of 99%, an IC50 [1] of 0.089 nM and an IC50 [2] of 43 nM.

With COCCCOc1cc2c(cc1OCCCOC)-c1n[nH]c(Nc3cccc(F)c3)c1C2 [Compound 283, [6,7-Bis-(3-methoxy-propoxy)-2,4-dihydroindeno[1,2-c]pyrazol-3-yl]-(3-fluoro-phenyl)-amine] the inhibition at 10 µM [1] was 86.5%, the IC50 [1] was 4.36 nM and the IC50 [2] was 340 nM.

For COCCCOc1cc2c(cc1OCCCOC)-c1n[nH]c(Nc3cccc(OC)c3)c1C2 [Compound 284, [6,7-Bis-(3-methoxy-propoxy)-2,4-dihydroindeno[1,2-c]pyrazol-3-yl]-(3-methoxy-phenyl)-amine], the inhibition at 10 µM [1] was 84.6%, the IC50 [1] was 5.09 nM and the IC50 [2] was 69 nM.

With COCCCOc1cc2c(cc1OCCCOC)-c1n[nH]c(Nc3cccnc3)c1C2 [Compound 286, [6,7-Bis-(3-methoxy-propoxy)-2,4-dihydro-indeno[1,2-c]pyrazol-3-yl]-pyridin-3-yl-amine] the inhibition at 10 µM [1] was 95.5%, the IC50 [1] was 16.2 nM and the IC50 [2] was 2950 nM.

COCCCOc1cc2c(cc1OCCCOC)-c1n[nH]c(Nc3ccc(F)c(Cl)c3)c1C2 [Compound 287, [6,7-Bis-(3-methoxy-propoxy)-2,4-dihydro-indeno[1,2-c]pyrazol-3-yl]-(3-Chloro-4-fluoro-phenyl)-amine] gave an inhibition at 10 µM [1] of 92.5%, an IC50 [1] of 26.2 nM and an IC50 [2] of 3450 nM.

For CC(O)c1cccc(Nc2[nH]nc3c2Cc2cc(F)ccc2-3)c1 (stereo not drawn) [Compound 289, 1-[3-(6-Fluoro-2,4-dihydro-indeno[1,2-c]pyrazol-3-ylamino)-phenyl]-ethanol], the inhibition at 10 µM [1] was 93.5%, the IC50 [1] was 18.5 nM and the IC50 [2] was 2400 nM.

Work on CCOc1cc2c(cc1OCC)-c1n[nH]c(NCc3ccccc3Cl)c1C2 [Compound 292, (2-Chloro-benzyl)-(6,7-diethoxy-2,4-dihydro-indeno[1,2-c]pyrazol-3-yl)-amine] yielded an inhibition at 10 µM [1] of 86.5%, an IC50 [1] of 18.2 nM and an IC50 [2] of 1 nM.

For Fc1ccc2c(c1)-c1n[nH]c(Nc3ccccc3)c1C2 [Compound 299, (7-Fluoro-2,4-dihydro-indeno[1,2-c]pyrazol-3-yl)-phenyl-amine], the inhibition at 10 µM [1] was 80%, the IC50 [1] was 19.3 nM and the IC50 [2] was 198 nM.

Work on COc1ccc(Nc2[nH]nc3c2Cc2ccc(C)cc2-3)cc1Cl [Compound 309, (3-Chloro-4-methoxy-phenyl)-(7-methyl-2,4-dihydro-indeno[1,2-c]pyrazol-3-yl)-amine] yielded an inhibition at 10 µM [1] of 92.5%, an IC50 [1] of 30.2 nM and an IC50 [2] of 822 nM.

In the case of Cc1ccc2c(c1)-c1n[nH]c(Nc3cccc(C(C)O)c3)c1C2 (stereo not drawn) [Compound 310, 1-[3-(7-Methyl-2,4-dihydro-indeno[1,2-c]pyrazol-3-ylamino)-phenyl]-ethanol], the inhibition at 10 µM [1] is reported as 95.5%, the IC50 [1] is reported as 20.2 nM and the IC50 [2] is reported as 1470 nM.

Fc1cccc(Nc2[nH]nc3c2Cc2ccc(F)cc2-3)c1 [Compound 334, (7-Fluoro-2,4-dihydro-indeno[1,2-c]pyrazol-3-yl)-(3-fluoro-phenyl)-amine] was tested, and the inhibition at 10 µM [1] was 99.5%, the IC50 [1] was 8.69 nM and the IC50 [2] was 3300 nM.

For Fc1cccc(Nc2[nH]nc3c2Cc2ccccc2-3)c1 [Compound 337, (2,4-Dihydro-indeno[1,2-c]pyrazol-3-yl)-(3-fluoro-phenyl)-amine], the inhibition at 10 µM [1] was 100%, the IC50 [1] was 8.8 nM and the IC50 [2] was 2740 nM.

Fc1ccc(F)c(Nc2[nH]nc3c2Cc2ccccc2-3)c1 [Compound 339, (2,5-Difluoro-phenyl)-(2,4-dihydro-indeno[1,2-c]pyrazol-3-yl)-amine] gave an inhibition at 10 µM [1] of 100%, an IC50 [1] of 117 nM and an IC50 [2] of 2180 nM.

COc1ccc(OC)c(Nc2[nH]nc3c2Cc2ccccc2-3)c1 [Compound 341, (2,4-Dihydro-indeno[1,2-c]pyrazol-3-yl)-(2,5-dimethoxy-phenyl)-amine] gave an inhibition at 10 µM [1] of 92.5%, an IC50 [1] of 41.2 nM and an IC50 [2] of 350 nM.

In the case of CCOc1cc2c(cc1OCC)C(C)c1c-2n[nH]c1Nc1cccc(OC)c1 (stereo not drawn) [Compound 348, (6,7-Diethoxy-4-methyl-2,4-dihydro-indeno[1,2-c]pyrazol-3-yl)-(3-methoxy-phenyl)-amine], the inhibition at 10 µM [1] is reported as 97.5%, the IC50 [1] is reported as 25.3 nM and the IC50 [2] is reported as 11 nM.

Compound COc1cc2c(cc1F)Cc1c-2n[nH]c1Nc1cccc(Br)c1 [Compound 358, (3-Bromo-phenyl)-(6-fluoro-7-methoxy-2,4-dihydro-indeno[1,2-c]pyrazol-3-yl)-amine] has an inhibition at 10 µM [1] of 92%, an IC50 [1] of 8.77 nM and an IC50 [2] of 338 nM.

COc1cc2c(cc1F)Cc1c-2n[nH]c1Nc1ccc(F)c(Cl)c1 [Compound 359, (3-Chloro-4-fluoro-phenyl)-(6-fluoro-7-methoxy-2,4-dihydro-indeno[1,2-c]pyrazol-3-yl)-amine] gave an inhibition at 10 µM [1] of 98.5%, an IC50 [1] of 41.5 nM and an IC50 [2] of 143 nM.
